Each compound was assayed against integrin αvβ3 (Homo sapiens, UniProt P05106+P06756) (assay: Competitive ELISA vs NS–RGDfK). Settings: NS–RGDfK 0.5 OD; starting 50 μM.
Assay type: binding

Row | Compound | competition with NS–RGDfK for binding to integrin αvβ3
1 | CC(C)(CN)CNC(=O)NCCS(=O)(=O)N[C@@H](CNC(=O)c1ccc(OCCNC2=NCCCN2)cc1)C(=O)O.Cl [IAC, 4-[2-(3,4,5,6-tetrahydropyrimidin-2-ylamino)-ethyloxy]benzoyl-2-(S)-[N-(3-aminoneopenta-1-carbamyl)]-aminoethylsulfonylamino-h-alanine hydrochloride] | did compete with NS–RGDfK for binding to the integrin
2 | N=C(N)NCCC[C@@H]1NC(=O)[C@H](CCCCN)NC(=O)[C@@H](Cc2ccccc2)NC(=O)[C@H](CC(=O)O)NC(=O)CNC1=O [RGDfK, cyclo(Arg-Gly-Asp-D-Phe-Lys)] | did compete with NS–RGDfK for binding to the integrin
3 | cyclo-(Arg-Ala-Asp- D-Phe-Lys) (head to tail) [RADfK] | did not have any detectable competition with NS–RGDfK
